Reference: patent EP1963277B1, “FLUORINATED COMPOUNDS” (priority 2005, dated 2007)
Like-named read-outs stand apart in the source and are kept apart here.

How the values were obtained:
Type in all cases: in vivo
FCA-treated rats [1] = assay: Freund's Complete Adjuvant (FCA) model, mechanical allodynia (modified Randall-Selitto method); details: p.o.
Description: (§1) Administration of FCA to the hind paw of an animal induces the formation of a localized edema and has been widely used as a model of chronic inflammatory pain. 100 µl of FCA is injected subcutaneously into the dorsal aspect of the left hind paw of the rats. The edema appears within 2 h reaches a peak by 6h and lasts for about 7 days. The effects of compounds on mechanical allodynia and paw volume were studied 2 days after FCA administration.
The effect of the compounds in alleviating mechanical allodynia was assessed in the FCA-treated rats using the modified Randall-Selitto method (Analgesy-Meter, Ugo Basile, Italy). The animal's paw is placed on a small plinth under a cone-shaped pusher. Increasing force is applied to the paw by depressing a pedal until vocalization or withdrawal of the paw occurs. The minimum force required to elicit this vocalization/withdrawal is the paw pressure threshold. The cut-off was set at 150 g.
After the initial basal (control) readings were taken, the test compound (60 mg/kg)/vehicle was administered orally in a volume of 10 ml/kg. The paw pressure thresholds were measured 30, 60 and 180 min post administration. […] Some of the compounds were effective even at 60 and 180 min post administration.

Male, CD-1 mice = assay: Maximal Electroshock Assay (mouse); details: for ED50: oral pretreatment, range in parentheses
Description: Male, CD-1 mice (20-30g body weight) were orally pretreated with test compound or vehicle control, and either at 1h or 4h post dose a maximal electroshock (45mA amplitude, 0.2s duration, 60Hz) was applied by corneal electrodes. Protection was defined by the absence of a tonic extensor seizure in the animal within 20s of application of the electrical stimulus, which typically occurred in all vehicle pretreated animals. Animals received only one electroshock and so separate animals were used for the 1h and 4h timepoints. All drugs were administered in multiple doses.

SNI rats [2] = assay: Spared Nerve Injury (SNI) model, cold allodynia (acetone test); details: for duration (s) of nociceptive response, Post Admin 30 min: *** P<0.001 vs Pre-Admin.; for duration (s) of nociceptive response, Pre-Admin. 0 min: baseline before administration
Description: (§2) The compounds were tested for their efficacy in reducing mechanical allodynia and cold allodynia in the spared nerve injury (SNI) model of chronic neuropathic pain. In this model, the left sciatic nerve of the rat is exposed under anesthesia. Two of the branches of the sciatic nerve viz. the common peroneal and tibial nerve are ligated and sectioned. The third branch (sural nerve) is left intact. The animals were allowed a post-operative recovery period of 7 days before they were subjected to any test.
Cold allodynia was assessed by using the acetone test. In this model, 25 µl of acetone is sprayed on to the plantar surface of the hind paw. Evaporation of acetone causes cooling of the skin. The cold stimulus sets up nociceptive responses from the injured paw as evidenced by paw lifting, paw licking and grooming. The duration of the nociceptive responses is noted.
Testing of compounds was done after 21 days post-operatively. After initial basal readings were taken, the test compound or the vehicle was administered (10 ml/kg) either intraperitoneally (30 mg/kg) or orally (60 mg/kg). The readings were taken 30 min after the administration.

SNI rats [3] = assay: Spared Nerve Injury (SNI) model, mechanical allodynia (Dynamic Plantar Aesthesiometer); details: for withdrawal threshold, Pre-Admin. 0 min: baseline before administration
Description: as §2
The presence of mechanical allodynia was assessed using the Dynamic Plantar Aesthesiometer (Ugo Basile, Italy) which is a modified version of the Von Frey Hair test. In this, a test filament is positioned below the animal's hind paw and the unit is activated which causes the filament to move up and touch the plantar surface of the hind paw. Increasing force is applied to the paw via the filament. […] The cut-off force is set at 50 g. The tests were done on both the non-injured (control) and the injured (SNI) paw.
Testing of compounds was done after 21 days post-operatively. After initial basal readings were taken, the test compound or the vehicle was administered (10 ml/kg) either intraperitoneally (30 mg/kg) or orally (60 mg/kg). The readings were taken again 30, 60 and 180 min after the compound/vehicle administration.

rats = assay: Persistent Inflammatory Pain (Formalin Model); details: Rattus norvegicus, formalin test, 30 min pretreatment; for inhibition at 30 mg/kg: ip, i.p.; for inhibition at 60 mg/kg: po, p.o.
Description: The formalin test is a chemically-induced tonic pain model in which injection of formalin into a hind paw elicits a biphasic nociceptive behavior. The second phase of formalin response is predominantly due to a central sensitization phenomenon. Most clinically used drugs against neuropathic pain arc active on this second phase of formalin response. Formalin test is accepted as a valid model of persistent clinical pain.
The test was done by pretreating the rats with the test compound and 30 min later (pretreatment time), 50 µl of 2.5% formalin was injected into the right hind paw of the animal. The number of paw licking and flinching episodes were scored for 60 min post-formalin injection.
The compounds were administered either intraperitoneally (30 mg/kg) or orally (60 mg/kg).

FCA-treated rats [4] = assay: Freund's Complete Adjuvant (FCA) model, paw edema/volume (plethysmometer); details: p.o.
Description: as §1
The edema/volume of the paw is a measure of inflammation induced by FCA. This was measured by using a plethysmometer (Ugo Basile, Italy). In this, the paw of the rat is immersed in a reservoir of water and the volume of water displaced indicates the paw volume.
After the initial basal (control) readings were taken, the test compound (60 mg/kg)/vehicle was administered orally in a volume of 10 ml/kg.

[5] = system: Male, Sprague-Dawley rats; assay: Maximal Electroshock Assay (rat); details: for ED50: oral pretreatment, range in parentheses
Description: Male, Sprague-Dawley rats (approx. 100g body weight) were prescreened for tonic seizure susceptibility prior to drug testing. […] Protection was defined by the absence of a tonic extensor seizure in the animal within 20s of application of the electrical stimulus, which typically occurred in all vehicle pretreated animals. Animals received only one electroshock on the drug test day and so separate animals were used for the 0.5h and 4h timepoints. All drugs were administered in multiple doses.

[6] = 60 mg/kg, ** P<0.01, *** P<0.001 vs Pre-Admin.
[7] = group later given 60 mg/kg, baseline before administration
[8] = group later given 30 mg/kg, i.p.
[9] = group later given 60 mg/kg, p.o.
[10] = 30 mg/kg, i.p., *** P<0.001 vs Pre-Admin.
[11] = 60 mg/kg, p.o., *** P<0.001 vs Pre-Admin.

With `CC(=O)NC(COC(F)F)C(=O)NCc1ccccc1` (centres unmarked) [Compound 3, 2-(Acetylamino)-N-benzyl-3-(difluoromethoxy)propanamide] the “paw withdrawal threshold (g), Post Admin 30 min” value (FCA-treated rats [1]; [6]) was 57.8 ± 4.9** g, the “paw withdrawal threshold (g), Post Admin 60 min” value (FCA-treated rats [1]; [6]) was 46.7 ± 3.8 g and the “paw withdrawal threshold (g), Post Admin 180 min” value (FCA-treated rats [1]; [6]) was 37.8 ± 5.4 g. The “paw withdrawal threshold (g), Pre-Admin. 0 min” value (FCA-treated rats [1]; [7]) was 32.8 ± 6.5 g, the duration of action (Male, CD-1 mice; mouse MES, judged by similar potency at 1h and 4h pretreatment timepoints) was “longer than Lacosamide” and the “Ratio ED50 4h vs. 1h” value (Male, CD-1 mice; mouse, oral) was 3.5. For the same molecule, the “shift in ED50 for 1 vs. 4h” value (Male, CD-1 mice; mouse, oral) was 1 to 3.5 fold, the ED50 (Male, CD-1 mice; mouse, electroshock 1h post dose, blockade of tonic extensor seizure, read-out: MES oral ED50 1h) was 5.7 mg/kg and the ED50 (Male, CD-1 mice; read-out: MES oral ED50 4h, mouse, electroshock 4h post dose) was 20 mg/kg. The “duration (s) of nociceptive response, Post Admin 30 min” value (SNI rats [2]; 30 mg/kg, i.p.) was 4.3 ± 1.6*** s, the “duration (s) of nociceptive response, Post Admin 30 min” value (SNI rats [2]; 60 mg/kg, p.o.) was 17.2 ± 6.2*** s and the “duration (s) of nociceptive response, Pre-Admin. 0 min” value (SNI rats [2]; [8]) was 45.8 ± 9.4 s. For the same molecule, the “duration (s) of nociceptive response, Pre-Admin. 0 min” value (SNI rats [2]; [9]) was 70.7 ± 18.9 s, the “withdrawal threshold, Post Admin 30 min” value (SNI rats [3]; [10]) was 22.5 ± 2.1*** g and the “withdrawal threshold, Post Admin 180 min” value (SNI rats [3]; [10]) was 14.1 ± 1.6*** g. For the same molecule, the “withdrawal threshold, Post Admin 30 min” value (SNI rats [3]; [11]) was 19.4 ± 2.3*** g, the “withdrawal threshold, Post Admin 60 min” value (SNI rats [3]; [11]) was 20.6 ± 3.1*** g and the “withdrawal threshold, Post Admin 180 min” value (SNI rats [3]; [11]) was 10.8 ± 1.8 g. For the same molecule, the “withdrawal threshold, Pre-Admin. 0 min” value (SNI rats [3]; [8]) was 7.5 ± 1.4 g, the “withdrawal threshold, Pre-Admin. 0 min” value (SNI rats [3]; [9]) was 9.7 ± 2.5 g and the inhibition at 30 mg/kg (rats; *** P<0.001, read-out: %Inhibition Phase I) was 87.9 ± 12.1%. The inhibition at 30 mg/kg (rats; *** P<0.001, read-out: %Inhibition Phase II) was 90.2 ± 6.5%, the inhibition at 60 mg/kg (rats; ** P<0.01, *** P<0.001, read-out: %Inhibition Phase II) was 46.1 ± 8.7% and the inhibition at 60 mg/kg (rats; read-out: %Inhibition Phase I) was 21.4 ± 10.2%. The “paw volume (ml), Post Admin 30 min” value (FCA-treated rats [4]; 60 mg/kg) was 2.3 ± 0.1 mL, the “paw volume (ml), Post Admin 60 min” value (FCA-treated rats [4]; 60 mg/kg) was 2.3 ± .01 mL and the “paw volume (ml), Pre-Admin. 0 min” value (FCA-treated rats [4]; [7]) was 2.3 ± 0.0 mL. For the same molecule, the duration of action ([5]; rat MES, judged by similar potency at 0.5h and 4h pretreatment timepoints) was “longer than Lacosamide”, the “Ratio ED50 4h vs. 0.5h” value ([5]; rat, oral) was 1.4 and the “shift in ED50 for 0.5 vs. 4h” value ([5]; rat, oral) was 1 to 1.4 fold. For the same molecule, the ED50 ([5]; read-out: MES oral ED50 0.5h, rat, electroshock 0.5h post dose) was 3 mg/kg and the ED50 ([5]; read-out: MES oral ED50 4h, rat, electroshock 4h post dose) was 4.2 mg/kg.
